{"source": "patent US20160032327A1", "about": "“PROCESS FOR CULTURING DEINOCOCCUS BACTERIA” (DEINOVE, priority 2012, published 2016)", "key": {"[1]": {"test_system": "Deinococcus radiodurans R1", "description": "(§1) And the “Inhibitory Concentration of an oxidizer towards a Deinococcus or a related bacterium” (“ICD”) refers to the minimum concentration of said oxidizer in the culture medium that inhibits or reduces the growth of the Deinococcus. The IC may be easily ascertained for each microorganism or each strain thereof, and for each oxidizer, by implementing test cultures. For example, the strain of interest may be cultivated in several parallel cultures, each of said cultures containing an increased concentration of the oxidizer. After 2 or 3 days, the cultures are observed to measure the microbial growth and thereby to determine the IC.\n(§2) Preculture was done for 3 days in CMG 1%. After checking the purity of the culture, cell pellet was washed three times in sterile water and then DO was adjusted to 2.\n(§3) Hydrogen peroxide stock solution: H2O2 (30%wt solution, SIGMA ref. 216763, stored at 4° C.)\n(§4) Preparation of the H2O2 range:\n(§5) Dispense 180 μl of media into culture wells (200 μl into blank wells)\n(§6) Add 20 μL of washed cell pellet at an optical density (600 nm) of 2 into well to be inoculated.\n(§7) Gently add 50 μL of mineral oil on the well surface to limit evaporation.\n(§8) Microplate was incubated for 3 days at 30 or 45° C. according to the optimal growth temperature indicated in the first part. Growth was monitored by an absorbance measure."}, "Escherichia coli K12": {"test_system": "Escherichia coli K12", "conditions": "E. coli, 30° C., CMG medium", "description": "as §1, §2, §3, §4, §5, §6, §7, §8"}, "M36-7D_17": {"test_system": "M36-7D_17", "description": "as §1, §2, §3, §4, §5, §6, §7, §8"}, "M36-7D_21 [2]": {"test_system": "M36-7D_21", "description": "as §1, §2, §3, §4, §5, §6, §7, §8"}, "M36-7Dwt": {"test_system": "M36-7Dwt", "description": "as §1, §2, §3, §4, §5, §6, §7, §8"}, "[3]": {"test_system": "Saccharomyces cerevisiae 2640", "conditions": "S. cerevisiae, 30° C., CMG medium", "description": "as §1, §2, §3, §4, §5, §6, §7, §8"}, "Zymomonas mobilis DSM424": {"test_system": "Zymomonas mobilis DSM424", "conditions": "Z. mobilis, 30° C., CMG medium", "description": "as §1, §2, §3, §4, §5, §6, §7, §8"}, "M36-7D_21 [4]": {"test_system": "M36-7D_21", "conditions": "no growth after 24 or 96 h on agar plates at 45° C.", "procedure": "(§9) Deinococcus geothermalis M36-7D—21 and MX61E—04 were cultivated in 20% starch effluent pH 5 containing 15 mM NH4Cl and 5.30 mM K2HPO4\n(§10) 5 ml of the cultures were treated during one hour with different concentration of H2O2 (20, 50,100, 150 and 200 mM) at room temperature or at 45° C.\n(§11) The control sample corresponds to untreated sample (0 mM H2O2).\n(§12) The control and treated samples were then spread on agar plates containing 10% effluent starch and incubated during 24 and 96 hours at 45° C.\n(§13) The inhibitory concentration (IC expressed in mM) is the hydrogen peroxide concentration from which there was no growth after 24 or 96 h."}, "MX6-1E_04": {"test_system": "MX6-1E_04", "conditions": "no growth after 24 or 96 h on agar plates at 45° C.", "procedure": "as §9, §10, §11, §12, §13"}, "[5]": {"test_system": "Deinococcus geothermalis M36-7D—21", "procedure": "The growth of Deinococcus geothermalis M36-7D—21 was performed in microplates in CMG medium containing Peptone 2 g/L; Yeast Extract 5 g/L; Glucose 55 mM (10 g/L); MOPS acid 40 mM; NH4Cl 20 mM; NaOH 10 mM; KOH 10 mM; CaCl2.2H2O 0.5 μM; Na2SO4.10H2O 0.276 mM; MgCl2.6H2O 0.528 mM; (NH4)6(Mo7)O24.4H2O 3 nM; H3BO3 0.4 μM; CoCl2.6H2O 30 nM; CuSO4.5H2O 10 nM; MnCl2 0.25 μM; ZnSO4.7H2O 10 nM; D-Biotin 1 μg/L; Niacin (nicotinic acid) 1 μg/L; Pyridoxin (pyridoxal HCl ou vitamine B6) 1 μg/L; Thiamin HCl (vitamine B1); FeCl3 20 μM; Sodium Citrate.2H2O 20 μM; K2HPO4 5,7 mM.\nThe addition of 100 mM hydrogen peroxide was made at TO (begin of the growth) or at the exponential phase.\nThe growth was monitored by measuring the OD600 nm."}, "[6]": {"conditions": "one hour treatment at room temperature"}}, "note": "Read-outs that look alike come from different tables or passages of the source.", "data": [{"molecule": "OO", "note": "[hydrogen peroxide]", "values": [{"measurement": "Concentration of hydrogen peroxide in the presence of which the strain is able to grow", "setting": "[1]; D. radiodurans R1", "value": "up to 190 mM"}, {"measurement": "IC: concentration of hydrogen peroxide from which there was no growth after 3 days of incubation", "setting": "[1]; D. radiodurans R1, 30° C., CMG medium, 3 days", "value": 200, "unit": "mM"}, {"measurement": "IC: concentration of hydrogen peroxide from which there was no growth after 3 days of incubation", "setting": "Escherichia coli K12", "value": 10, "unit": "mM"}, {"measurement": "IC: concentration of hydrogen peroxide from which there was no growth after 3 days of incubation", "setting": "M36-7D_17; M36-7D_17, CMG medium, 3 days", "value": 200, "unit": "mM"}, {"measurement": "Concentration of hydrogen peroxide in the presence of which the strain is able to grow", "setting": "M36-7D_17; modified D. geothermalis M36-7D (M36-7D_17)", "value": "up to 190 mM"}, {"measurement": "IC: concentration of hydrogen peroxide from which there was no growth after 3 days of incubation", "setting": "M36-7D_21 [2]; M36-7D_21, CMG medium, 3 days", "value": 200, "unit": "mM"}, {"measurement": "Concentration of hydrogen peroxide in the presence of which the strain is able to grow", "setting": "M36-7D_21 [2]; modified D. geothermalis M36-7D (M36-7D_21)", "value": "up to 190 mM"}, {"measurement": "Concentration of hydrogen peroxide in the presence of which the strain is able to grow", "setting": "M36-7Dwt; D. geothermalis M36-7Dwt", "value": "up to 190 mM"}, {"measurement": "IC: concentration of hydrogen peroxide from which there was no growth after 3 days of incubation", "setting": "M36-7Dwt; M36-7Dwt, 45° C., CMG medium, 3 days", "value": 200, "unit": "mM"}, {"measurement": "IC: concentration of hydrogen peroxide from which there was no growth after 3 days of incubation", "setting": "[3]", "value": 20, "unit": "mM"}, {"measurement": "IC: concentration of hydrogen peroxide from which there was no growth after 3 days of incubation", "setting": "Zymomonas mobilis DSM424", "value": 10, "unit": "mM"}, {"measurement": "Inhibitory concentration (mM) of hydrogen peroxide", "setting": "M36-7D_21 [4]; one hour treatment at 45° C.", "value": 200, "unit": "mM"}, {"measurement": "Inhibitory concentration (mM) of hydrogen peroxide", "setting": "M36-7D_21 [4]; [6]", "value": ">200", "unit": "mM"}, {"measurement": "Inhibitory concentration (mM) of hydrogen peroxide", "setting": "MX6-1E_04; one hour treatment at 45° C.", "value": 50, "unit": "mM"}, {"measurement": "Inhibitory concentration (mM) of hydrogen peroxide", "setting": "MX6-1E_04; [6]", "value": 100, "unit": "mM"}, {"measurement": "Effect on growth of M36-7D—21 (OD600 nm)", "setting": "[5]; 100 mM hydrogen peroxide added at TO (begin of the growth)", "value": "did not affect the growth"}, {"measurement": "Effect on growth of M36-7D—21 (OD600 nm)", "setting": "[5]; 100 mM hydrogen peroxide added at the exponential phase", "value": "did not affect the growth"}, {"measurement": "IC: concentration of hydrogen peroxide from which there was no growth after 3 days of incubation", "setting": "M36-7D_18; M36-7D_18, CMG medium, 3 days", "value": 200, "unit": "mM"}, {"measurement": "Concentration of hydrogen peroxide in the presence of which the strain is able to grow", "setting": "M36-7D_18; modified D. geothermalis M36-7D (M36-7D_18)", "value": "up to 190 mM"}]}]}
